Results on 1 molecule are retold here after US12133855B2, “Lipid-like nanocomplexes and uses thereof” (Trustees of Tufts College, priority 2018, dated 2024).

Some results are limits rather than exact numbers.

The nature of data set [1]: Thiol-triggered calcein release (fluorescence dequenching). Format: physicochemical. As to conditions: DTT 1 mM, 5 mM and 10 mM, 12 h incubation. As to the method:
Lipidoids were fabricated into nanoparticles for all delivery applications. Briefly, lipidoids were mixed with sodium acetate buffer (25 mM, pH 5.2), sonicated for 30 min in an ultrasonic bath, followed by another 30 min of vigorous vortexing. The as-prepared blank LNPs were stored at 4° C. For Cy5-RNA/LNP, mRNA/LNP and protein/LNP complexation, blank lipidoid nanoparticles were mixed with RNA molecules or (−30)GFP-Cre protein in PBS buffer (pH 7.4) following our previously reported procedures and incubated at room temperature for another 30 min before use. Typical procedures for Nile red encapsulation are as follows: 5 μL of Nile red stock solution in acetone was added into an empty vial, which was then placed in a vacuum oven to completely remove the organic solvent. Then, a predetermined amount of blank LNP stock solution (1.0 mg/mL) was added into the vial. The mixture was sonicated for 40 min in an ultrasonic bath and stirred overnight at room temperature. The final concentration of Nile red was adjusted to 6.6×10-7 mol L-1 and 6×10-7 mol L-1 for thiol triggered release study and cell incubation, respectively, by diluting with PBS as necessary. Typical procedures for CPT and DiO/DiI FRET pair encapsulation are as follows: 100 μL of DiO/DiI stock solution in MeOH was charged into an empty vial and placed in a vacuum oven to remove the organic solvent. […]

The next data set has as its system Cy5-RNA. The data set is described as follows: RNA binding test of lipidoid nanoparticles. The format is physicochemical. As to the method: Lipidoids were fabricated into nanoparticles for all delivery applications. Briefly, lipidoids were mixed with sodium acetate buffer (25 mM, pH 5.2), sonicated for 30 min in an ultrasonic bath, followed by another 30 min of vigorous vortexing. The as-prepared blank LNPs were stored at 4° C. For Cy5-RNA/LNP, mRNA/LNP and protein/LNP complexation, blank lipidoid nanoparticles were mixed with RNA molecules or (−30)GFP-Cre protein in PBS buffer (pH 7.4) following our previously reported procedures and incubated at room temperature for another 30 min before use. Typical procedures for Nile red encapsulation are as follows: 5 μL of Nile red stock solution in acetone was added into an empty vial, which was then placed in a vacuum oven to completely remove the organic solvent. Then, a predetermined amount of blank LNP stock solution (1.0 mg/mL) was added into the vial. The mixture was sonicated for 40 min in an ultrasonic bath and stirred overnight at room temperature. The final concentration of Nile red was adjusted to 6.6×10-7 mol L-1 and 6×10-7 mol L-1 for thiol triggered release study and cell incubation, respectively, by diluting with PBS as necessary. Typical procedures for CPT and DiO/DiI FRET pair encapsulation are as follows: 100 μL of DiO/DiI stock solution in MeOH was charged into an empty vial and placed in a vacuum oven to remove the organic solvent. Lipidoids (2.0 mg) in 200 μL of methanol were then added into the vial and stirred to produce a homogeneous solution. Then, 600 μL of DI water was added dropwise in 10 min with continuous stirring. The resulting mixture was dialyzed against DI water for 24 h (Thermo Scientific Slide-A-Lyzer Dialysis Cassette, MWCO=3500 Da), and fresh water was replaced every 4 h. Typical procedures for encapsulation of calcein and doxonorubicin hydrochloride are as follows: precalculated amounts of calcein or Dox stock solutions in DI water was diluted into 800 μL with sodium acetate buffer, and used as the selective solvents to trigger the self-assembly process of lipidoids in methanol (5 mg/mL), respectively. […]

The subject of another data set is HeLa cells. The data set is described as follows: Cytotoxicity of anticancer drug loaded nanoparticles (MTT). As to conditions: Dox series; 8 h of exposure, MTT after 48 h of incubation.
The mark [2] stands for this setting: 10/1 weight ratio, DTT (10 mM, 24 h) treated nanoparticles.

Description for HeLa cells: After 24 h of incubation at 37° C., 5% CO2, Dox, CPT or Oxa loaded nanoparticles were added to the cells and incubated for 8 h followed by media change. The cells were then incubated for another 40 h before cell viability analysis.
Cell viabilities of HeLa and HeLa-DsRed were measured using the standard MTT assay. In a 96-well plate, after incubating HeLa or HeLa-DsRed cells with blank or cargo-loaded nanoparticles, the MTT reagent (5 mg/mL, in 30 μL PBS buffer) was added and the cells were incubated for another 4 h at 37° C. The cell culture media was then carefully removed and 200 μL of DMSO was added to each well. The DMSO solution was then transferred into a clean 96-well plate and the absorbance at 570 nm was recorded by a microplate reader. All experiments were performed in quadruplicate.
Dose-dependent cytotoxicity was then examined.

As to `CCN(CC)CCN(CCC(=O)OCCSSCCNC(=O)OC1CCC2(C)C(=CCC3C2CCC2(C)C(C(C)CCCC(C)C)CCC32)C1)CCC(=O)OCCSSCCNC(=O)OC1CCC2(C)C(=CCC3C2CCC2(C)C(C(C)CCCC(C)C)CCC32)C1` (centres unmarked) [Lipidoid 75-OCholB], in data set [1], the “increase of calcein fluorescence intensity vs untreated and cysteine treated LNPs” value was 4.7-6.4 folds. Also, in the data set with Cy5-RNA (10/1 weight ratio lipidoid/Cy5-RNA), the “RNA molecules complexed with LNPs” value was 82.9%. Also, in the data set with Cy5-RNA (setting [2]), the RNA binding efficacy amounted to 15.5% and the “unbound Cy5-RNA” value is reported as 84.5%. Further, in the data set with HeLa cells, the “cell viability / dose-dependent cytotoxicity” value is on record as above 80%.
